Measured values taken from US20190030036A1, “PHOSPHODIESTERASE INHIBITOR TREATMENT” (Cyrano Therapeutics, Inc., priority 2013, published 2019).
Marks after values point to notes of the source that are not given here.

Test system: patients with hyposmia
Assay: Smell function (DT, RT, ME, H) by forced-choice, three-stimuli, stepwise-staircase technique with four odors; open trial of oral theophylline
Type: in vivo, human
Excerpt: Patients initially reported their sensory dysfunction as either loss of taste (e.g., flavor) and/or smell function. This subjective response was documented by objective psychophysical measurements of olfactory function administered to each patient by use of a forced-choice, three-stimuli, stepwise-staircase technique in a fixed, controlled design (1, 53). Efficacy of this technique and results of testing were previously documented in a double-blind clinical trial (53). Four odors were used; they were pyridine (dead-fish odor), nitrobenzene (bitter-almond odor), thiophene (petroleum-like odor) and amyl acetate (banana-oil odor). Detection thresholds (DT), recognition thresholds (RT) and magnitude estimation (ME) values for each odor were determined as previously described (1, 53). Thresholds were converted into bottle units (BU) as previously described (53) and results reported as M±SEM of correct responses for each odor in each treatment group; ME was reported in % and results calculated to obtain M±SEM for each treatment group for all correct responses using data for the four highest odor concentrations presented (from 10^−2M—an absolute odor concentration).
In addition, each patient graded the hedonic (H) value of each odor presented for these same odor concentrations (from 10^−2M—an absolute odor concentration using a −100−0−+100 scale). […] Results were obtained by calculating the arithmetical sum of each correct recognition response for each odor with respect to its pleasantness, unpleasantness or neutrality. Arithmetic M±SEM were obtained for each treatment group for each odor presented.
After determination of hyposmia, patients were treated in an open label, fixed design, controlled open trial. Patients were given an oral extended release theophylline in divided daily doses taken in the middle of breakfast and lunch. All patients were initially given 200 mg of theophylline; changes in this dose were made based upon subjective responses to therapy. If at a subsequent return visit, patients reported ≥5% subjective improvement in overall smell function, they continued on this same dose of theophylline and were reevaluated after four to six months of continued treatment. Results from any subsequent return from these improved patients were not included in any subsequent data report. All subsequent comparisons between treated and untreated patients were made only between those patients continuing in the study compared to their own measurements obtained in the untreated state. If patients reported <5% subjective improvement, their theophylline dose was increased by 200 mg daily and they were scheduled for retesting at the study site after two to four months at this new dosage. For patients that reported <5% improvement, this sequence continued until patients reached 800 mg of theophylline, at which time the study was considered completed.
Patients returned for reevaluation after two to four months of treatment. Measurements of blood serum theophylline were measured by a fluorescence polarization assay (Abbott, Chicago, Ill.). At this time, subjective changes in smell function were measured independently (compared to patient's memory of previous normal smell function monitored by use of the patients' daily measurements) using the scale from −100−0-+100 previously described. After independently recording their subjective responses, smell function was measured for all four odors with DT, RT, ME and H determined without recourse to prior measurements.
Since data for all measurements from each patient group (local or distant) on each dose level were combined mean and SEM for each measurement (DT, RT, ME, H) of smell function for each treatment group were calculated on this basis. Differences in measurements between before treatment and each treatment level were calculated and significance of differences estimated using Student t tests (values p<0.05 considered significant). […]

[1] = amyl acetate, oral theophylline 200 mg
[2] = amyl acetate, oral theophylline 200 mg daily, all patients (199)
[3] = amyl acetate, oral theophylline 200 mg, Type I hyposmia (57)
[4] = amyl acetate, oral theophylline 200 mg, Type II hyposmia (138)
[5] = amyl acetate, oral theophylline 200 mg, Type III hyposmia (4)
[6] = amyl acetate, oral theophylline 400 mg
[7] = amyl acetate, oral theophylline 400 mg daily, all patients (120)
[8] = amyl acetate, oral theophylline 400 mg, Type I hyposmia (33)
[9] = amyl acetate, oral theophylline 400 mg, Type II hyposmia (85)
[10] = amyl acetate, oral theophylline 400 mg, Type III hyposmia (2)
[11] = amyl acetate, oral theophylline 600 mg daily, all patients (160)
[12] = amyl acetate, oral theophylline 600 mg, Type I hyposmia (51)
[13] = amyl acetate, oral theophylline 600 mg, Type II hyposmia (105)
[14] = amyl acetate, oral theophylline 600 mg, Type III hyposmia (4)
[15] = amyl acetate, oral theophylline 800 mg daily, all patients (28)
[16] = amyl acetate, oral theophylline 800 mg, Type I hyposmia (12)
[17] = amyl acetate, oral theophylline 800 mg, Type II hyposmia (16)
[18] = nitrobenzene, oral theophylline 200 mg
[19] = nitrobenzene, oral theophylline 200 mg daily, all patients (199)
[20] = nitrobenzene, oral theophylline 200 mg, Type I hyposmia (57)
[21] = nitrobenzene, oral theophylline 200 mg, Type II hyposmia (138)
[22] = nitrobenzene, oral theophylline 200 mg, Type III hyposmia (4)
[23] = nitrobenzene, oral theophylline 400 mg
[24] = nitrobenzene, oral theophylline 400 mg daily, all patients (120)
[25] = nitrobenzene, oral theophylline 400 mg, Type I hyposmia (33)
[26] = nitrobenzene, oral theophylline 400 mg, Type II hyposmia (85)
[27] = nitrobenzene, oral theophylline 400 mg, Type III hyposmia (2)
[28] = nitrobenzene, oral theophylline 600 mg daily, all patients (160)
[29] = nitrobenzene, oral theophylline 600 mg, Type I hyposmia (51)
[30] = nitrobenzene, oral theophylline 600 mg, Type II hyposmia (105)
[31] = nitrobenzene, oral theophylline 600 mg, Type III hyposmia (4)
[32] = nitrobenzene, oral theophylline 800 mg daily, all patients (28)
[33] = nitrobenzene, oral theophylline 800 mg, Type I hyposmia (12)
[34] = nitrobenzene, oral theophylline 800 mg, Type II hyposmia (16)

Compound: Cn1c(=O)c2[nH]cnc2n(C)c1=O [theophylline]
- increase of H values (more pleasant) [1]: 2%
- increase of ME values [1]: 5%
- DT, detection threshold [2]: 7.9 ± 0.2^c BU
- H, hedonic estimation [2]: 3 ± 1%
- ME, magnitude estimation [2]: 15 ± 2^d %
- RT, recognition threshold [2]: 9.9 ± 0.2^c BU
- DT, detection threshold [3]: 10.5 ± 0.3^d BU
- H, hedonic value [3]: 4 ± 2^a %
- ME, magnitude estimation [3]: 6 ± 2^a %
- RT, recognition threshold [3]: 11.3 ± 0.2^ BU
- DT, detection threshold [4]: 7.0 ± 0.3^ BU
- H, hedonic value [4]: 3 ± 2^ %
- ME, magnitude estimation [4]: 19 ± 2^ %
- RT, recognition threshold [4]: 9.3 ± 0.2^ BU
- DT, detection threshold [5]: 2.8 ± 0.5 BU
- H, hedonic value [5]: 14 ± 13%
- ME, magnitude estimation [5]: 32 ± 10%
- RT, recognition threshold [5]: 5.2 ± 1.6 BU
- ME increases [6]: 8%
- change of H values (became more pleasant) [6]: 1%
- DT, detection threshold [7]: 7.1 ± 0.3^b BU
- H, hedonic estimation [7]: 3 ± 2^ %
- ME, magnitude estimation [7]: 18 ± 2^c %
- RT, recognition threshold [7]: 9.3 ± 0.3^b BU
- DT, detection threshold [8]: 10.1 ± 0.5^a BU
- H, hedonic value [8]: 5 ± 3^a %
- ME, magnitude estimation [8]: 7 ± 3^a %
- RT, recognition threshold [8]: 11.2 ± 0.3^ BU
- DT, detection threshold [9]: 6.1 ± 0.4^a BU
- H, hedonic value [9]: 0.3 ± 2.8^ %
- ME, magnitude estimation [9]: 21 ± 3^ %
- RT, recognition threshold [9]: 8.8 ± 0.4^a BU
- DT, detection threshold [10]: 2 BU
- H, hedonic value [10]: 75%
- ME, magnitude estimation [10]: 75%
- RT, recognition threshold [10]: 3 BU
- DT, detection threshold [11]: 7.8 ± 0.3^a BU
- H, hedonic estimation [11]: 4 ± 1^ %
- ME, magnitude estimation [11]: 15 ± 2^c %
- RT, recognition threshold [11]: 9.6 ± 0.2^a BU
- DT, detection threshold [12]: 10.1 ± 0.3^a BU
- H, hedonic value [12]: −0.4 ± 1^ %
- ME, magnitude estimation [12]: 5 ± 2^a %
- RT, recognition threshold [12]: 11.1 ± 0.2^ BU
- DT, detection threshold [13]: 6.8 ± 0.3^a BU
- H, hedonic value [13]: 7 ± 2^ %
- ME, magnitude estimation [13]: 19 ± 2^ %
- RT, recognition threshold [13]: 8.9 ± 0.3^a BU
- DT, detection threshold [14]: 2.5 ± 1.0 BU
- H, hedonic value [14]: 28 ± 19%
- ME, magnitude estimation [14]: 31 ± 17%
- RT, recognition threshold [14]: 4.8 ± 1.7 BU
- DT, detection threshold [15]: 7.2 ± 0.8^ BU
- H, hedonic estimation [15]: 8 ± 5^ %
- ME, magnitude estimation [15]: 24 ± 2^a %
- RT, recognition threshold [15]: 9.0 ± 0.5^b BU
- DT, detection threshold [16]: 10.6 ± 0.5^ BU
- H, hedonic value [16]: −1 ± 4^ %
- ME, magnitude estimation [16]: 5 ± 3^a %
- RT, recognition threshold [16]: 11.6 ± 0.4^ BU
- DT, detection threshold [17]: 4.6 ± 0.7^a BU
- H, hedonic value [17]: 13 ± 9^ %
- ME, magnitude estimation [17]: 38 ± 6^c %
- RT, recognition threshold [17]: 7.1 ± 0.6^a BU
- increase of H values (more pleasant) [18]: 2%
- increase of ME values [18]: 5%
- DT, detection threshold [19]: 7.8 ± 0.2^d BU
- H, hedonic estimation [19]: 6 ± 2^a %
- ME, magnitude estimation [19]: 17 ± 2 ^ %
- RT, recognition threshold [19]: 9.5 ± 0.2^a BU
- DT, detection threshold [20]: 10.3 ± 0.3^a BU
- H, hedonic value [20]: 4 ± 2^a %
- ME, magnitude estimation [20]: 5 ± 2^a %
- RT, recognition threshold [20]: 11.2 ± 0.2^d BU
- DT, detection threshold [21]: 6.9 ± 0.3^a BU
- H, hedonic value [21]: 7 ± 2^ %
- ME, magnitude estimation [21]: 22 ± 2^ %
- RT, recognition threshold [21]: 8.8 ± 0.3^ BU
- DT, detection threshold [22]: 3.8 ± 0.7 BU
- H, hedonic value [22]: 13 ± 12%
- ME, magnitude estimation [22]: 33 ± 8%
- RT, recognition threshold [22]: 5.0 ± 0.6 BU
- ME increases [23]: 11%
- change of H values (became more pleasant) [23]: 4%
- DT, detection threshold [24]: 7.2 ± 0.3^c BU
- H, hedonic estimation [24]: 8 ± 3^a %
- ME, magnitude estimation [24]: 23 ± 2^a %
- RT, recognition threshold [24]: 8.9 ± 0.3^b BU
- DT, detection threshold [25]: 9.8 ± 0.5^a BU
- H, hedonic value [25]: 3 ± 3^a %
- ME, magnitude estimation [25]: 8 ± 3^a %
- RT, recognition threshold [25]: 10.9 ± 0.4^e BU
- DT, detection threshold [26]: 6.3 ± 0.4^a BU
- H, hedonic value [26]: 11 ± 3^ %
- ME, magnitude estimation [26]: 27 ± 3^a %
- RT, recognition threshold [26]: 8.2 ± 0.4^a BU
- DT, detection threshold [27]: 2.5 BU
- H, hedonic value [27]: −62%
- ME, magnitude estimation [27]: 79%
- RT, recognition threshold [27]: 4.0 BU
- DT, detection threshold [28]: 7.8 ± 0.3^a BU
- H, hedonic estimation [28]: 8 ± 2^d %
- ME, magnitude estimation [28]: 18 ± 2^d %
- RT, recognition threshold [28]: 9.1 ± 0.2^c BU
- DT, detection threshold [29]: 9.9 ± 0.4^c BU
- H, hedonic value [29]: 2 ± 2^ %
- ME, magnitude estimation [29]: 6 ± 2^a %
- RT, recognition threshold [29]: 10.8 ± 0.3^ BU
- DT, detection threshold [30]: 6.8 ± 0.3^a BU
- H, hedonic value [30]: 11 ± 2^ %
- ME, magnitude estimation [30]: 24 ± 2^ %
- RT, recognition threshold [30]: 8.4 ± 0.3^ BU
- DT, detection threshold [31]: 3.8 ± 0.9 BU
- H, hedonic value [31]: 12 ± 16%
- ME, magnitude estimation [31]: 33 ± 13%
- RT, recognition threshold [31]: 4.5 ± 1.3 BU
- DT, detection threshold [32]: 7.0 ± 0.8^d BU
- H, hedonic estimation [32]: 13 ± 7 ^ %
- ME, magnitude estimation [32]: 25 ± 6 ^ %
- RT, recognition threshold [32]: 7.8 ± 0.8^d BU
- DT, detection threshold [33]: 10.1 ± 0.8^ BU
- H, hedonic value [33]: 2 ± 2^a %
- ME, magnitude estimation [33]: 4 ± 3^a %
- RT, recognition threshold [33]: 11.3 ± 0.7^ BU
- DT, detection threshold [34]: 4.6 ± 0.9^a BU
- H, hedonic value [34]: 22 ± 11^ %
- ME, magnitude estimation [34]: 42 ± 8^b %
- RT, recognition threshold [34]: 5.1 ± 0.9^a BU
- total mean increase of ME for all odors (oral theophylline 200 mg): 5.1%
- increase of H values for amyl acetate (oral theophylline 200 mg daily, not statistically significant): 50%
- total mean increase of ME for all odors (oral theophylline 400 mg): 10.4%
- decrease of H values for thiophene (oral theophylline 400 mg daily): 40%
- increase of H values for nitrobenzene (oral theophylline 400 mg daily, not statistically significant): 50%
